Read-outs that look alike come from different tables or passages of the source. Marks after values point to notes of the source that are not given here.

One series relates to human sebocytes. Nature of the series: Inhibition of sebocyte lipogenesis (14C-acetate label remaining in sebocytes). It is filed as cell-based. The following applies: for IC50: read-out: IC 50 (concentration which provides a 50% sebum suppression relative to the control).
Series [1] is described as follows: Light absorbency (color) at 340-500 nm, Spectramax 340 spectrophotometer. The format is physicochemical. The settings on record: from absorbency values at 340-500 nm.
Setting [2] is: 20 hour incubation, 96 well plate.
Where [3] appears, read: Homo sapiens, 20 hour incubation, 96 well plate.

On to “C13 isoalcohol propionitrile [Compound 2]”, for which the IC50 with human sebocytes (setting [2]) is over 100 µM.

`O=S1(=O)OC(c2ccc(O)cc2)(c2ccc(O)cc2)c2ccccc21` [Phenol Red]: the activity at 100 µM in the series with human sebocytes (Homo sapiens, 20 h, read-out: radioactive label remaining in the sebocytes, % of Control) came to 46.3%.

Consider Iso-tridecyl carboxymethylate [TDCM], for which the “radioactive label remaining in the sebocytes, % of Control” value is 84.8* % in the series on human sebocytes (1 μM test agent, 20 hour incubation, 96 well plate, lower = greater inhibition of lipogenesis); 43.4* % with human sebocytes (10 μM test agent, 20 hour incubation, 96 well plate, lower = greater inhibition of lipogenesis); 22.8* % with human sebocytes (100 μM test agent, 20 hour incubation, 96 well plate, lower = greater inhibition of lipogenesis).

`CC(C)CCCC(C)CCCC(C)CCOCCC(=O)O` (centres unmarked) [Compound 7, 3,7,11-trimethyl 1-dodecanol carboxyethylate]: the IC50 with human sebocytes (setting [3]) is 10 µM. Also, the “activity as sebum suppressant relative to the branched alcohol from which it is derived” value with human sebocytes (ratio of IC50 values of Table 3) was “at least 10 times”.

As to `CC(C)CCCC(C)CCCC(C)CCO` (centres unmarked) [Compound 6, 3,7,11-trimethyl 1-dodecanol], in the series with human sebocytes (setting [3]), the IC50 was over 100 µM.

As to C13 isoalcohol glycerol [Compound 5], in the series with human sebocytes (setting [2]), the IC50 was over 100 µM.

Take “C13 isoalcohol carboxyethylate (TDCE) [Compound 1]”: the “radioactive label remaining in the sebocytes, % of Control” value with human sebocytes (1 µM) is recorded as 48.7* %; with human sebocytes (10 µM) it was 34.6* %; with human sebocytes (100 µM), 11.9* %. Further, the IC50 with human sebocytes (setting [2]) is 5 µM. The “color compared with TDCM” value in series [1] is listed as “lighter in color”.

These data come from patent US20040013631A1, “Skin care cosmetic compositions containing carboxyalkylates of branched alcohols and/or alkoxylates thereof” (Unilever Home & Personal Care USA, Division of Conopco, priority 2002, published 2004).
